Series [1] is described as follows: Dielectric breakdown strength, ASTM D877-13 Procedure A. The class given is physicochemical. The conditions noted are these: electrode spacing 2.54 mm, rate of rise 500 V/sec. The method, then: (§1) Dielectric breakdown strength and dielectric constant were measured for PE-1, PE-2, CE-1 to CE-4. The dielectric constants presented in Table 7, below, were measured using the broadband Novocontrol Dielectric Spectrometer per ASTM D150-11. The dielectric breakdown strengths presented in Table 7 were measured according to ASTM D877-13, Procedure A, with the following modification: spacing between the electrodes was 2.54 mm and rate of rise was 500 V/sec.

A short description of series [2]: Dielectric constant, ASTM D150-11. The class given is physicochemical. The method, then:
as §1

Series [3] can be described thus: Boiling point, ASTM D1120-94. The settings on record: temperature at 760 mmHg. The class given is physicochemical. The method, then:
Vapor Pressure was measured using the stirred-flask ebulliometer method described in ASTM E1719-97 “Vapor Pressure Measurement by Ebulliometry.” This method is also referred to as “Dynamic Reflux.” The boiling point was measured using ASTM D1120-94 “Standard Test Method for Boiling Point of Engine Coolants.” The method used a 50-mL glass round-bottom flask. Vacuum was measured and controlled using a vacuum controller available from J-KEM Scientific, Inc., St. Louis, Mo., USA. The pressure transducer was calibrated on the day of measurement by comparison with full vacuum and with an electronic barometer located in the same laboratory. The procedure was carried out by slowly heating the material, then applying vacuum until boiling occurred and a steady dropwise reflux rate was established. Pot temperature and pressure reading were recorded, then the vacuum controller was set for a higher absolute pressure and the material was heated further until a new reflux point was established. The pressure level was raised in increments until the vapor pressure curve was obtained up to the atmospheric boiling point.
The boiling point of PE-1 is 60.1° C., which is the temperature at 760 mmHg. The boiling point of PE-2 is 88.1° C., which is the temperature at 760 mmHg.

Series [4] is described as follows: Pour point, determined visually. The class given is physicochemical. How it is done:
The useful liquid range of a perfluorinated 1-alkoxypropene compound of the present disclosure is between its pour point and its boiling point. A pour point is the lowest temperature at which the compound is still able to be poured. The pour point can be determined, for example, by ASTM D97-16 “Standard Test Method for Pour Point of Petroleum Products.” In one embodiment, the compounds of the present disclosure have a pour point of less than −100° C., less than −120° C., less than −130° C., or less than −140° C. Pour Point can be measured by placing a sealed glass vial containing 3 mL of the fluid into a refrigerated bath, adjusting temperature incrementally and checking for pouring. Pouring is defined as visible movement of the material during a five second count. This criterion is specified in ASTM D97-16.
One to two milliliters of the sample were placed in a vial and cooled in a bath until it solidified. The sample was then allowed to warm slowly in the bath and observed every 3-5° C.

A further series concerns rats. As to the kind of experiment: Toxicity screening study in rats, 4 h inhalation LC-50. The class given is in vivo. How it is done:
MA-3 (50 g, 160 mmol) was charged to a 3-neck flask equipped with a water-cooled condenser and magnetic stir bar. SbF5 was then added dropwise to the stirring MA-3 and a large exotherm was observed. The resultant reaction mixture was allowed to stir at room temperature for 1 h. GC-FID analysis of the reaction mixture indicated complete consumption of the MA-3 starting material. Water was then added to the mixture with stirring. The fluorous phase was collected and distilled by concentric tube distillation (59° C., 740 mmHg, 98.7 kPa) affording the desired MP-3 (41.2 g, 82% yield) as a colorless liquid. Both E- and Z-isomers were obtained as a mixture. […] The structure was confirmed by GC-MS and ^19F NMR analyses to be that of the desired product.

A short description of series [5]: Thermal stability with absorbents, GC-FID purity. The class given is physicochemical. How it is done:
The thermal stability was measured by charging 1.0 g of Preparatory Example 2 into glass vials and then adding 0.10 g of absorbent. The samples were stirred for 24 h at 50° C. and then analyzed by GC-FID for decomposition and purity changes.

Consider `FC(F)=C(F)C(F)(F)OC(F)(F)C(F)(F)C(F)(F)F` [MA-3, 1,1,2,3,3-pentafluoro-3-(perfluoropropoxy)prop-1-ene, reference compound], for which the “Dielectric Breakdown Voltage” value in series [1] is given as 30.7 kV. Moreover, the “Dielectric Constant (measured at 1 kHz)” value in series [2] came out at 2.37.

As for `FC(F)=C(F)C(F)(F)OC(F)(F)C(F)(F)C(F)(F)OC(F)(F)F` [MA-31, 1,1,2,3,3-Pentafluoro-3-(1,1,2,2,3,3-hexafluoro-3-(trifluoromethoxy)propoxy)prop-1-ene, reference compound], in series [1], the “Dielectric Breakdown Voltage” value was determined as 39.4 kV. Moreover, in series [2], the “Dielectric Constant (measured at 1 kHz)” value was 2.37.

In the case of `FC(OC(F)(F)C(F)(F)C(F)(F)F)=C(F)C(F)(F)F` [PE-1, 1,2,3,3,3-pentafluoro-1-(perfluoropropoxy)prop-1-ene], in series [3], the Boiling point was 60.1 °C. In addition, the Pour point in series [4] was −145 °C. In series [1], the “Dielectric Breakdown Voltage” value amounted to 41.7 kV. The “Dielectric Constant (measured at 1 kHz)” value in series [2] is given as 2.04. Moreover, the “4 h inhalation LC-50” value in the series on rats is “greater than 10,000 ppm”.

As for `FC(OC(F)(F)C(F)(F)C(F)(F)OC(F)(F)F)=C(F)C(F)(F)F` [PE-2, 1,2,3,3,3-pentafluoro-1-(1,1,2,2,3,3-hexafluoro-3-(trifluoromethoxy)propoxy)prop-1-ene], the “Purity (%)” value stood at 99.5% in series [5] (4 Angstrom Molecular Sieves, 24 h at 50° C.); 99.5% in series [5] (Activated Carbon, 24 h at 50° C.); 99.5% in series [5] (Basic Alumina, 24 h at 50° C.); 99.3% in series [5] (K2CO3, 24 h at 50° C.); 99.5% in series [5] (No Absorbent, 24 h at 50° C.); 99.4% in series [5] (Silica Gel, 24 h at 50° C.). Besides, in series [3], the Boiling point is 88.1 °C. Further, in series [4], the Pour point is −140 °C. Further, the “Dielectric Breakdown Voltage” value in series [1] is listed as above 60 kV. Moreover, the “Dielectric Constant (measured at 1 kHz)” value in series [2] came out at 2.04.

Values taken from patent US11673861B2, “Perfluorinated 1-alkoxypropenes, compositions, and methods and apparatuses for using same” (priority 2017, dated 2023).
